Laboratory results reported in US10370387B2, “Tricyclic fused thiophene derivatives as JAK inhibitors” (Incyte Corporation, priority 2012, dated 2019).
Structures can show the parent of a compound that is named as a salt.

tested on: human JAK1; test: In vitro JAK kinase assay (HTRF, phosphorylation of biotinylated peptide), JAK1; format: biochemical; details: ratio of JAK2 IC50 to JAK1 IC50, 1 mM ATP
Protocol: Compounds herein were tested for inhibitory activity of JAK targets according to the following in vitro assay described in Park et al., Analytical Biochemistry 1999, 269, 94-104. The catalytic domains of human JAK1 (a.a. 837-1142), JAK2 (a.a. 828-1132) and JAK3 (a.a. 781-1124) were expressed using baculovirus in insect cells and purified. The catalytic activity of JAK1, JAK2 or JAK3 was assayed by measuring the phosphorylation of a biotinylated peptide. The phosphorylated peptide was detected by homogenous time resolved fluorescence (HTRF). IC50s of compounds were measured for each kinase in the 40 μL reactions that contain the enzyme, ATP and 500 nM peptide in 50 mM Tris (pH 7.8) buffer with 100 mM NaCl, 5 mM DTT, and 0.1 mg/mL (0.01%) BSA. For the 1 mM IC50 measurements, ATP concentration in the reactions was 1 mM. Reactions were carried out at room temperature for 1 hour and then stopped with 20 μL 45 mM EDTA, 300 nM SA-APC, 6 nM Eu-Py20 in assay buffer (Perkin Elmer, Boston, Mass.). Binding to the Europium labeled antibody took place for 40 minutes and HTRF signal was measured on a PHERA star plate reader (BMG, Cary, N.C.). The Example compounds were each tested in the Example A assay (see Table 1 for data for the compounds of the examples as tested by the assay of Example A at 1 mM ATP).

Question: For `CC(C)c1nc2cnc3ccsc3c2n1[C@H]1CC[C@H](CC#N)CC1` [Example 27, [trans-4-(2-Isopropyl-1H-imidazo[4,5-d]thieno[3,2-b]pyridin-1-yl)cyclohexyl]acetonitrile], which JAK2/JAK1 is on record?
Answer: >10

Question: “((1R,2R,4S)-2-Hydroxy-4-{2-[(1R)-1-hydroxyethyl]-1H-imidazo[4,5-d]thieno[3,2-b]pyridin-1-yl}cyclohexyl)acetonitrile and ((1S,2S,4R)-2-hydroxy-4-{2-[(1R)-1-hydroxyethyl]-1H-imidazo[4,5-d]thieno[3,2-b]pyridin-1-yl}cyclohexyl)acetonitrile [36 (first peak)]” was tested. Which JAK2/JAK1 did it give?
Answer: >10

Question: `C[C@@H](O)c1nc2cnc3ccsc3c2n1[C@H]1CCN(CCCC#N)C1` [Example 65, 4-((3S)-3-{2-[(1R)-1-Hydroxyethyl]-1H-imidazo[4,5-d]thieno[3,2-b]pyridin-1-yl}pyrrolidin-1-yl)butanenitrile] was tested. Which JAK2/JAK1 did it give?
Answer: >10

Question: `C[C@@H](O)c1nc2cnc3ccsc3c2n1[C@H]1CCCN(C(=O)CC#N)C1.O=C(O)C(F)(F)F` [Example 51, 3-((3S)-3-{2-[(1R)-1-Hydroxyethyl]-1H-imidazo[4,5-d]thieno[3,2-b]pyridin-1-yl}piperidin-1-yl)-3-oxopropanenitrile trifluoroacetate] was tested. Which JAK2/JAK1 did it give?
Answer: >10

Question: How did the JAK2/JAK1 turn out when `CS(=O)(=O)NCc1nc2cnc3ccsc3c2n1[C@H]1CC[C@H](CC#N)CC1` [Example 18, N-({1-[trans-4-(Cyanomethyl)cyclohexyl]-1H-imidazo[4,5-d]thieno[3,2-b]pyridin-2-yl}methyl)methanesulfonamide] was run?
Answer: >10

Question: For `N#CCc1nc2cnc3ccsc3c2n1[C@H]1CC[C@H](CC#N)CC1` [Example 90, {1-[trans-4-(Cyanomethyl)cyclohexyl]-1H-imidazo[4,5-d]thieno[3,2-b]pyridin-2-yl}acetonitrile], which JAK2/JAK1 is on record?
Answer: >10

Question: With `C[C@@H](O)c1nc2cnc3ccsc3c2n1C1CCN(CC#N)CC1.O=C(O)C(F)(F)F` [Example 61, (4-{2-[(1R)-1-Hydroxyethyl]-1H-imidazo[4,5-d]thieno[3,2-b]pyridin-1-yl}piperidin-1-yl)acetonitrile trifluoroacetate] as the molecule, how does the JAK2/JAK1 read?
Answer: >10

Question: How did the JAK2/JAK1 turn out when `CNC(C)c1nc2cnc3ccsc3c2n1[C@H]1CC[C@H](CC#N)OC1` (stereo partly drawn) [Example 70, ((2R,5S)-5-{2-[1-(Methylamino)ethyl]-1H-imidazo[4,5-d]thieno[3,2-b]pyridin-1-yl}tetrahydro-2H-pyran-2-yl)acetonitrile] was run?
Answer: >10

Question: How did the JAK2/JAK1 turn out when `CCc1nc2cnc3ccsc3c2n1[C@@H]1CC[C@@H](CC#N)[C@@H](O)C1` (mixture of isomers) [Example 35] was run?
Answer: >10

Question: Which JAK2/JAK1 does the source give for `C[C@@H](O)c1nc2cnc3ccsc3c2n1C1CCN(CC(F)(F)F)CC1` [Example 15, (1R)-1-{1-[1-(2,2,2-Trifluoroethyl)piperidin-4-yl]-1H-imidazo[4,5-d]thieno[3,2-b]pyridin-2-yl}ethanol] here?
Answer: >9

Question: Which JAK2/JAK1 does the source give for `N#CCc1nc2cnc3ccsc3c2n1[C@H]1CC[C@@H](CC#N)OC1` [Example 74, {(2S,5S)-5-[2-(Cyanomethyl)-1H-imidazo[4,5-d]thieno[3,2-b]pyridin-1-yl]tetrahydro-2H-pyran-2-yl}acetonitrile] here?
Answer: >10

Question: Which JAK2/JAK1 does the source give for `CC(C)OC(=O)NC[C@H]1CC[C@H](n2c([C@@H](C)O)nc3cnc4ccsc4c32)CC1` [Example 84, Isopropyl [(trans-4-{2-[(1R)-1-hydroxyethyl]-1H-imidazo[4,5-d]thieno[3,2-b]pyridin-1-yl}cyclohexyl)methyl]carbamate] here?
Answer: >10

Question: How did the JAK2/JAK1 turn out when `Cc1nc2cnc3ccsc3c2n1[C@H]1CC[C@H](CC#N)CC1` [Example 48, [trans-4-(2-Methyl-1H-imidazo[4,5-d]thieno[3,2-b]pyridin-1-yl)cyclohexyl]acetonitrile] was run?
Answer: >7

Question: Which JAK2/JAK1 does the source give for `C[C@@H](O)c1nc2cnc3ccsc3c2n1[C@H]1CCCN(C(=O)CCc2ccccc2)C1` [Example 57] here?
Answer: >10

Question: How did the JAK2/JAK1 turn out when `C[C@@H](O)c1nc2cnc3ccsc3c2n1C1CCC(NCCC#N)CC1` (single isomer, unassigned) [30 (second peak)] was run?
Answer: >10

Question: `C[C@@H](O)c1nc2cnc3ccsc3c2n1[C@H]1CCCOC1` [Example 1, (1R)-1-{1-[(3S)-Tetrahydro-2H-pyran-3-yl]-1H-imidazo[4,5-d]thieno[3,2-b]pyridin-2-yl}ethanol] was tested. Which JAK2/JAK1 did it give?
Answer: >3

Question: `N#CC[C@H]1CC[C@H](n2c(CO)nc3cnc4ccsc4c32)CC1` [Example 17, {trans-4-[2-(Hydroxymethyl)-1H-imidazo[4,5-d]thieno[3,2-b]pyridin-1-yl]cyclohexyl}acetonitrile] was tested. Which JAK2/JAK1 did it give?
Answer: >10

Question: Which JAK2/JAK1 does the source give for `Cc1nc2cnc3ccsc3c2n1[C@@H]1CC[C@@H](CC#N)[C@@H](O)C1` (mixture of isomers) [Example 34, Mixture of [(1R, 2R, 4S)-2-hydroxy-4-(2-methyl-1H-imidazo[4,5-d]thieno[3,2-b]pyridin-1-yl)cyclohexyl]acetonitrile trifluoroacetate and [(1S, 2S, 4R)-2-hydroxy-4-(2-methyl-1H-imidazo[4,5-d]thieno[3,2-b]pyridin-1-yl)cyclohexyl]acetonitrile trifluoroacetate] here?
Answer: >10

Question: Which JAK2/JAK1 does the source give for `C[C@@H](O)c1nc2cnc3ccsc3c2n1[C@H]1CCCN(C(=O)CCc2cccnc2)C1` [Example 54, (1R)-1-{1-[(3S)-1-(3-Pyridin-3-ylpropanoyl)piperidin-3-yl]-1H-imidazo[4,5-d]thieno[3,2-b]pyridin-2-yl}ethanol] here?
Answer: >10

Question: For `CS(=O)(=O)NCc1nc2cnc3ccsc3c2n1[C@H]1CC2CCC1C2` (stereo partly drawn) [Example 22, N-((1-((2S)-Bicyclo[2.2.1]heptan-2-yl)-1H-imidazo[4,5-d]thieno[3,2-b]pyridin-2-yl)methyl)methanesulfonamide], which JAK2/JAK1 is on record?
Answer: >4

Question: With `C[C@@H](O)c1nc2cnc3ccsc3c2n1C1CCCCC1` [Example 13, (1R)-1-(1-Cyclohexyl-1H-imidazo[4,5-d]thieno[3,2-b]pyridin-2-yl)ethanol] as the molecule, how does the JAK2/JAK1 read?
Answer: >10

Question: How did the JAK2/JAK1 turn out when `CCc1nc2cnc3ccsc3c2n1[C@H]1CC[C@H](CC#N)OC1` [Example 39, [(2R,5S)-5-(2-Ethyl-1H-imidazo[4,5-d]thieno[3,2-b]pyridin-1-yl)tetrahydro-2H-pyran-2-yl]acetonitrile] was run?
Answer: >10

Question: How did the JAK2/JAK1 turn out when “[(1R,2S,4S)-4-(2-Methyl-1H-imidazo[4,5-d]thieno[3,2-b]pyridin-1-yl)-2-hydroxycyclohexyl]acetonitrile and [(1S,2R,4R)-4-(2-methyl-1H-imidazo[4,5-d]thieno[3,2-b]pyridin-1-yl)-2-hydroxycyclohexyl]acetonitrile [41 (first peak)]” was run?
Answer: >10

Question: How did the JAK2/JAK1 turn out when `CNS(=O)(=O)C[C@H]1CC[C@H](n2c([C@@H](C)O)nc3cnc4ccsc4c32)CC1` [Example 14, 1-(trans-4-{2-[(1R)-1-hydroxyethyl]-1H-imidazo[4,5-d]thieno[3,2-b]pyridin-1-yl}cyclohexyl)-N-methylmethanesulfonamide] was run?
Answer: >5

Question: `C[C@@H](O)c1nc2cnc3ccsc3c2n1[C@H]1CC[C@H](O)CC1` [Example 3, trans-4-{2-[(1R)-1-Hydroxyethyl]-1H-imidazo[4,5-d]thieno[3,2-b]pyridin-1-yl}cyclohexanol] was tested. Which JAK2/JAK1 did it give?
Answer: >10

Question: How did the JAK2/JAK1 turn out when `C[C@@H](O)c1nc2cnc3ccsc3c2n1C1CCN(CCCC(F)(F)F)CC1` [Example 60, (1R)-1-{1-[1-(4,4,4-Trifluorobutyl)piperidin-4-yl]-1H-imidazo[4,5-d]thieno[3,2-b]pyridin-2-yl}ethanol] was run?
Answer: >10

Question: With `CC(CC(=O)N1CCC[C@H](n2c([C@@H](C)O)nc3cnc4ccsc4c32)C1)c1ccccc1` (stereo partly drawn) [Example 55, (1R)-1-{1-[(3S)-1-(3-Phenylbutanoyl)piperidin-3-yl]-1H-imidazo[4,5-d]thieno[3,2-b]pyridin-2-yl}ethanol] as the molecule, how does the JAK2/JAK1 read?
Answer: >10

Question: `CCCOC(=O)NC[C@H]1CC[C@H](n2c([C@@H](C)O)nc3cnc4ccsc4c32)CC1` [Example 83, Propyl [(trans-4-{2-[(1R)-1-hydroxyethyl]-1H-imidazo[4,5-d]thieno[3,2-b]pyridin-1-yl}cyclohexyl)methyl]carbamate] was tested. Which JAK2/JAK1 did it give?
Answer: >10

Question: With `C[C@@H](O)c1nc2cnc3ccsc3c2n1[C@H]1CCC(CO)OC1` (stereo partly drawn) [Example 19, (1R)-1-{1-[(3S)-6-(Hydroxymethyl)tetrahydro-2H-pyran-3-yl]-1H-imidazo[4,5-d]thieno[3,2-b]pyridin-2-yl}ethanol] as the molecule, how does the JAK2/JAK1 read?
Answer: >10

Question: How did the JAK2/JAK1 turn out when `CC(F)c1nc2cnc3ccsc3c2n1[C@H]1CC[C@H](CC#N)OC1` (stereo partly drawn) [Example 71, {(2R,5S)-5-[2-(1-Fluoroethyl)-1H-imidazo[4,5-d]thieno[3,2-b]pyridin-1-yl]tetrahydro-2H-pyran-2-yl}acetonitrile] was run?
Answer: >10

Question: For `C[C@@H](O)c1nc2cnc3ccsc3c2n1[C@H]1CC[C@H](CCC#N)CC1` [Example 8, 3-(trans-4-{2-[(1R)-1-Hydroxyethyl]-1H-imidazo[4,5-d]thieno[3,2-b]pyridin-1-yl}cyclohexyl)propanenitrile], which JAK2/JAK1 is on record?
Answer: >10

Question: With `C[C@@H](O)c1nc2cnc3ccsc3c2n1[C@H]1CC[C@H](CCS(C)(=O)=O)CC1` [Example 5, (1R)-1-(1-{trans-4-[2-(Methylsulfonyl)ethyl]cyclohexyl}-1H-imidazo[4,5-d]thieno[3,2-b]pyridin-2-yl)ethanol] as the molecule, how does the JAK2/JAK1 read?
Answer: >10
